Target: T1, ZIKV RdRp (ZIKV NS5 RdRp domain) (Zika virus, UniProt A0A0X1LH65)
T1 construct: RdRp domain residues 275-903 of NS5, cut from the genome polyprotein; E. coli BL21(DE3)-pRIL; 75 kDa
Assay: real-time SYTO […] fluorescence polymerization assay
Assay type: biochemical

T1 sequence (A0A0X1LH65 2795-3423): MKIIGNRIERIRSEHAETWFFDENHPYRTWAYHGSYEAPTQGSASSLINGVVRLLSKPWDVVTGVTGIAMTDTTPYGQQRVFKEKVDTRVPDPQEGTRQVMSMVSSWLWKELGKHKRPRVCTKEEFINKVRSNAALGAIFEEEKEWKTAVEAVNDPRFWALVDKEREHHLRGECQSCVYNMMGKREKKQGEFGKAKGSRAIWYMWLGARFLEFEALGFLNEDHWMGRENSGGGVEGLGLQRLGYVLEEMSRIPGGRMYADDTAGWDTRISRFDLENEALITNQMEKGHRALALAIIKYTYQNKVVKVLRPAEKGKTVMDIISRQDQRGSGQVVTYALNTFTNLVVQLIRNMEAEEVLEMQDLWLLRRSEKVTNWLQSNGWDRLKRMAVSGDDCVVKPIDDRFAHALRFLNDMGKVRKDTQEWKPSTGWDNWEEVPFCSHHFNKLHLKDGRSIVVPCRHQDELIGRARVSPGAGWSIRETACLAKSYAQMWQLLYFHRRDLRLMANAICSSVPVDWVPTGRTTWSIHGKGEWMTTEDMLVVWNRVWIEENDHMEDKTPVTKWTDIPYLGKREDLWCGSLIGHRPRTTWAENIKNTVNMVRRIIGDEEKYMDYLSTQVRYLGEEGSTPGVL

## NC(=O)c1ncn([C@@H]2O[C@H](CO[P@@](=O)(O)O[P@](=O)(O)OP(=O)(O)O)[C@@H](O)[C@H]2O)n1 [ribavirin 5′-triphosphate]
  IC50: 946 ± 46 µM

## Nc1ncnc2c1ncn2[C@@H]1O[C@H](COP(=O)(O)OP(=O)(O)OP(=O)(O)O)C[C@H]1O [cordycepin 5′-triphosphate]
  IC50: 54 ± 7 µM
